Data reported in patent EP4660184A1 (Eurofarma Laboratórios S.A., priority 2023, dated 2024).

Experiments:
[1] = molecular target: T1, human sodium channels Nav 1.8 (Homo sapiens, UniProt Q9Y5Y9); assay: Automated whole-cell voltage-clamp (ScreenPatch 384P) sodium current block, Nav 1.8; type: cell-based; conditions: CHO cells stably expressing human Nav 1.8; inactivation step -40 mV for 8 seconds, test step 10 mV (TP1A); exposure at least five minutes; room temperature; mean if two or more assays; read-out: Nav1.8 IC50
T1 construct: expressed in transfected cells
Experimental: (§1) Biological assays were performed on Chinese hamster ovary (CHO) cells that express human sodium channels Nav 1.8 or Nav 1.7 in a stable manner.
(§2) The experimental protocol voltage-clamp using the whole cell configuration was established on the automated ScreenPatch® 384P platform (SP384PE, Nanion Technologies, Livingston, NJ) and the results were recorded with a Nanion 384-well Patch Clamp chip (NPC) (Nanion Technologies, Livingston, NJ).
(§3) Formula I compounds were diluted in eight concentrations in the extracellular solution composed of saline saline solution, buffered with HEPES (mM): NaCl, 137; KCl, 4; CaCl2, 3,8; MgCl2, 1; HEPES, 10; Glucose, 10; pH 7.4. The […], 50; CsF, 90; MgCl2, 5; EGTA, 5; HEPES, 10; pH 7.2. The duration of exposure of each compound with cells expressing Nav 1.7 or Nav 1.8 was at least five minutes and the assays were performed at room temperature.
(§4) The measurements of the sodium currents of Nav 1.8 and Nav 1.7 were obtained using the voltage protocol described below.
(§5) A holding voltage of -100 mV was established followed by an inactivation voltage step at -40 mV for 8 seconds, followed by a step of -100 mV for 20 ms, followed by a 20 ms step for 10 mV for Nav 1.8 or 0 mV for Nav 1.7 (TP1A) before returning to the holding voltage of -100 mV.
(§6) The protocol was repeated at a frequency of 0.05 Hz and the amplitude of the current was quantified throughout the recording of the TP1A phase. The variation in the amplitude of the peak current was evaluated according to the formula described below, after exposing the cells expressing the channels to each concentration of the different compounds: % Block = (1−(ITP1A,molecule/ITP1A,basal)×100%, [formula] wherein ITP1A,basal and ITP1A,molecule represent the peaks of sodium current input into TP1A before exposure to the compound and in the presence of the compound, respectively.
(§7) Data were obtained by nonlinear regression (nonlinear least squares) with XLfit for Excel (Microsoft, Redmond, WA).
(§8) The compounds were tested in at least one assay to obtain the value of CI50. For compounds that were tested in two or more assays, the results are described as the mean of the CI50 values.

[2] = molecular target: T2, human sodium channels Nav 1.7 (Homo sapiens, UniProt Q15858); assay: Automated whole-cell voltage-clamp (ScreenPatch 384P) sodium current block, Nav 1.7; type: cell-based; conditions: CHO cells stably expressing human Nav 1.7; inactivation step -40 mV for 8 seconds, test step 0 mV (TP1A); exposure at least five minutes; room temperature; mean if two or more assays; read-out: Nav1.7 IC50
T2 construct: expressed in transfected cells
Experimental: as §1, §2, §3, §4, §5, §6, §7, §8

T1 sequence (Q9Y5Y9 whole entry): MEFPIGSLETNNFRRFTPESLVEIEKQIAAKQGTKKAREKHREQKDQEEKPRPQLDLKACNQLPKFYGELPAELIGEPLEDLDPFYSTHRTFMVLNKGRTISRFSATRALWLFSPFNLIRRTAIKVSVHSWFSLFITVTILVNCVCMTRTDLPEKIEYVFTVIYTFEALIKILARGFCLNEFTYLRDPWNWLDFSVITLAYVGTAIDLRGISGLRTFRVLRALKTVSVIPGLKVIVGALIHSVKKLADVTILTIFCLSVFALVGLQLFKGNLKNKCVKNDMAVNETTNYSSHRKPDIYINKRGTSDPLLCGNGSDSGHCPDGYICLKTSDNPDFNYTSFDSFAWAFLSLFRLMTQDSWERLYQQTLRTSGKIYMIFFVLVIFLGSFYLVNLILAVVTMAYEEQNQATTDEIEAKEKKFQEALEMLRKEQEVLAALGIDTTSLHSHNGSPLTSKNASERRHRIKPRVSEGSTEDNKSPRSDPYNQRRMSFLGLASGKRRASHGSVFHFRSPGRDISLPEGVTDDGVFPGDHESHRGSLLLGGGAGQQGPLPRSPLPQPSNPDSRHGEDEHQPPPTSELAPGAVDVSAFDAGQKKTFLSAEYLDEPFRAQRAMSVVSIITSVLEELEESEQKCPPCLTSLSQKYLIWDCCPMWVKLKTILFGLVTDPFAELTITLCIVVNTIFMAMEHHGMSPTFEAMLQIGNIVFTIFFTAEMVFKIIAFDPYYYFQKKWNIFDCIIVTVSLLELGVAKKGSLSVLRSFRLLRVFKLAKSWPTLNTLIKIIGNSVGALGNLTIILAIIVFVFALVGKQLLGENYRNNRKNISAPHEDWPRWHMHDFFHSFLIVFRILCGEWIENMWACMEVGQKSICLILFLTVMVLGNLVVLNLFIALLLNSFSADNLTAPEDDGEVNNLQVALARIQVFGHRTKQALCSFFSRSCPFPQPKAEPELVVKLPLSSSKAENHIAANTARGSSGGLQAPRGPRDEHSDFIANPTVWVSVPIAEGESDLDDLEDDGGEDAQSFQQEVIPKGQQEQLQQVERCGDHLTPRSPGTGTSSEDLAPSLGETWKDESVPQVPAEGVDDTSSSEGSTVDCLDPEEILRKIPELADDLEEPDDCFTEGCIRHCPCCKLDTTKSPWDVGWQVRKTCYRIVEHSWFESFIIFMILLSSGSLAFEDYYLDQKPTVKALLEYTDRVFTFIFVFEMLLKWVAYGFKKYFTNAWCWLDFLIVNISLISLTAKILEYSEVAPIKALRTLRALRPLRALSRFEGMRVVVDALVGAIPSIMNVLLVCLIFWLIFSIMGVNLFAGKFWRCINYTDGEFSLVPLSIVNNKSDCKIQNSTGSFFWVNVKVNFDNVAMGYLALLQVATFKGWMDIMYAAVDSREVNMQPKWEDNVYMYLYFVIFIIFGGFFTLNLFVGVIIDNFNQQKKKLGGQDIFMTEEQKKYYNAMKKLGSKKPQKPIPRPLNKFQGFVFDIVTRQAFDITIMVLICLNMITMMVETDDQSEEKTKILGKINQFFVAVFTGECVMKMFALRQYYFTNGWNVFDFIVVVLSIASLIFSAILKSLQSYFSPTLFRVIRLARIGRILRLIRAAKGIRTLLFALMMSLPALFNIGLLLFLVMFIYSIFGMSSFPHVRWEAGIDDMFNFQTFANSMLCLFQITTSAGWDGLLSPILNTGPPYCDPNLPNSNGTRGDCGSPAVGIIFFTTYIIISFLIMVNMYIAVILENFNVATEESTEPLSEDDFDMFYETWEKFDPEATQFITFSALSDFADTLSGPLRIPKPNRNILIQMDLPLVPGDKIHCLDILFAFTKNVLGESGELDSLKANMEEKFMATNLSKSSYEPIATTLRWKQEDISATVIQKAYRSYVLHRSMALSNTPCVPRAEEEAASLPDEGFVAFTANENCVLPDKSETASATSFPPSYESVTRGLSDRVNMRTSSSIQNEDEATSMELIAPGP
T2 sequence (Q15858 whole entry): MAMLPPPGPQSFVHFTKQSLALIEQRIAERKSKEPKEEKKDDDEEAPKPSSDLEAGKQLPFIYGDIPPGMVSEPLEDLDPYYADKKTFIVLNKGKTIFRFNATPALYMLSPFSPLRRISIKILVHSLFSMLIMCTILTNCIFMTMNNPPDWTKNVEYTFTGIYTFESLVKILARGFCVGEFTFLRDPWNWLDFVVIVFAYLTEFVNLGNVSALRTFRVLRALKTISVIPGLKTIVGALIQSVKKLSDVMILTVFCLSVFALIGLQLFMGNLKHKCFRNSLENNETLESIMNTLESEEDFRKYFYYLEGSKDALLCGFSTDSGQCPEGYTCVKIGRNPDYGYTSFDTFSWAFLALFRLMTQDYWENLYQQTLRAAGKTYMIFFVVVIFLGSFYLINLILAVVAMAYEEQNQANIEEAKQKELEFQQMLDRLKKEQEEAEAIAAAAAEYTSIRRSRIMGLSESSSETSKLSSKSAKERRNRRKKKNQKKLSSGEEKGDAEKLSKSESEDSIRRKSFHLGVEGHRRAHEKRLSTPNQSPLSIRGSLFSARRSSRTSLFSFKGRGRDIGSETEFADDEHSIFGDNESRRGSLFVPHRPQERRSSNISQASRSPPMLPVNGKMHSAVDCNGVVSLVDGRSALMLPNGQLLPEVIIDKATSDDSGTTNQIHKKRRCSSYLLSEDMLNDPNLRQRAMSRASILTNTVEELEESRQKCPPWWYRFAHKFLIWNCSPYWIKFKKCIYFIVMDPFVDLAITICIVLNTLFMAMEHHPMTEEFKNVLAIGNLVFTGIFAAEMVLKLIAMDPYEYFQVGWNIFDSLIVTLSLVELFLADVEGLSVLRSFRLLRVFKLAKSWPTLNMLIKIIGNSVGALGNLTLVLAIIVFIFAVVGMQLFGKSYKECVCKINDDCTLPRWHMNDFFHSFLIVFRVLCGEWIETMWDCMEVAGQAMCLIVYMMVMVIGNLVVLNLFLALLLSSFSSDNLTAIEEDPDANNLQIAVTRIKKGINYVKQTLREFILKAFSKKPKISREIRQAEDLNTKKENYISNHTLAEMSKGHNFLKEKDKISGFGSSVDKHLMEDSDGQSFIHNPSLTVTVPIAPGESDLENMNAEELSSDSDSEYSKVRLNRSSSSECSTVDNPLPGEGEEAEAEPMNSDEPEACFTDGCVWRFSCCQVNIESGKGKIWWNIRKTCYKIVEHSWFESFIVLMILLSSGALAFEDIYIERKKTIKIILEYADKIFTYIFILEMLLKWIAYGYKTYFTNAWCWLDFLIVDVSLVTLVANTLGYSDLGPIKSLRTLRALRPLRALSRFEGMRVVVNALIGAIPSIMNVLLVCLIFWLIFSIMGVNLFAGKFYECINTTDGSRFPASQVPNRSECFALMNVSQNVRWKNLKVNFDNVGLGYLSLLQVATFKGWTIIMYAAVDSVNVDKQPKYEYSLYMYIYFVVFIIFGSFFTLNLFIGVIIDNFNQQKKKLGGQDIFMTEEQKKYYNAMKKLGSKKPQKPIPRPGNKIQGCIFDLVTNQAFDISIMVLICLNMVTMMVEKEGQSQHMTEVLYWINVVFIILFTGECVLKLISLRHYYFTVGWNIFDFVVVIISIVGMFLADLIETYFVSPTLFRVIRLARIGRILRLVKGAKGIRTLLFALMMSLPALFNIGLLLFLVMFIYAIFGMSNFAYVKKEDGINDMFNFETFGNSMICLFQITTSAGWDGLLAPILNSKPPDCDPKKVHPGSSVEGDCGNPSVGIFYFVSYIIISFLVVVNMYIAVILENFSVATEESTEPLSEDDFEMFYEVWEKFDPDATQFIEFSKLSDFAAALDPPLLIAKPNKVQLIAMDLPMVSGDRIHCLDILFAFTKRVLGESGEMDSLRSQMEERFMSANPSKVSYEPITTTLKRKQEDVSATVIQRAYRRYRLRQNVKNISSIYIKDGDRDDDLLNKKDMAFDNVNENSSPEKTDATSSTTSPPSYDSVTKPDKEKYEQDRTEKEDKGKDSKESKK

| SMILES | IC50 [1] | IC50 [2] |
| --- | --- | --- |
| CCOc1ccc(-c2cncc(C(=O)NOCc3nccn3CC)n2)cn1 [Compound 61, 6-(6-ethoxypyridine-3-yl)-N-((1-ethyl-1H-imidazole-2-yl)methoxy)pyrazine-2-carboxamide] | < 500 nM | > 1000 nM |
| CCOc1ccc(-c2cncc(C(=O)NOCc3cccc(O)c3)n2)cn1 [Compound 35, 6-(6-ethoxypyridine-3-yl)-N-((3-hydroxybenzyl)oxy)pyrazine-2-carboxamide] | < 500 nM | > 1000 nM |
| CCOc1ccc(-c2cncc(C(=O)NOCc3cc(N(C)C)cnc3F)n2)cn1 [Compound 42, N-((5-(dimethylamino)-2-fluoropyridine-3-yl)methoxy)-6-(6-ethoxypyridine-3-yl)pyrazine-2-carboxamide] | < 500 nM | > 1000 nM |
| COc1ccc(F)c(CONC(=O)c2cncc(-c3ccc(OC(F)(F)F)nc3)n2)c1 [Compound 76] | < 500 nM | 500 to 1000 nM |
| CCOc1ccc(-c2cncc(C(=O)NOCc3cc(OC)ccc3F)n2)c(C)c1 [Compound 86] | < 500 nM | > 1000 nM |
| CCOc1ccc(-c2cncc(C(=O)NOCc3cncn3C)n2)cn1 [Compound 56] | < 500 nM | 500 to 1000 nM |
| CCOc1ccc(-c2cncc(C(=O)NOCc3ncoc3C)n2)cn1 [Compound 57, 6-(6-ethoxypyridine-3-yl)-N-((5-methyloxazole-4-yl)methoxy)pyrazine-2-carboxamide] | > 1000 nM | > 1000 nM |
| CCOc1ccc(-c2cncc(C(=O)NOCc3ccccc3O)n2)cc1 [Compound 6, 6-(4-ethoxyphenyl)-N-((2-hydroxybenzyl)oxy)pyrazine-2-carboxamide] | > 1000 nM | > 1000 nM |
| CCOc1ccc(-c2cncc(C(=O)NOCc3cc(C)cc(C)c3)n2)cc1 [Compound 21, N-((3,5-dimethylbenzyl)oxy)-6-(4-ethoxyphenyl)pyrazine-2-carboxamide] | > 1000 nM | > 1000 nM |
| CCOc1ccc(-c2cncc(C(=O)NOCc3cn(C(C)C)cn3)n2)cn1 [Compound 70] | < 500 nM | 500 to 1000 nM |
| COc1cccc(CONC(=O)c2cncc(-c3ccc(OC(F)(F)F)nc3)n2)c1 [Compound 72] | < 500 nM | < 500 nM |
| CN(C)c1ccc(F)c(CONC(=O)c2cncc(-c3ccc(OC(F)F)nc3)n2)c1 [Compound 81] | > 1000 nM | > 1000 nM |
| CCOc1ccc(-c2nc(C(=O)NOCc3cc(OC)ccc3F)cnc2O)cn1 [Compound 100] | < 500 nM | > 1000 nM |
| CN(C)c1cnc(F)c(CONC(=O)c2cncc(-c3ccc(OC(F)F)nc3)n2)c1 [Compound 80] | 500 to 1000 nM | > 1000 nM |
| O=C(NOCc1ccccn1)c1cncc(-c2ccc(OC(F)(F)F)nc2)n1 [Compound 73] | < 500 nM | > 1000 nM |
| CCOc1ccc(-c2cncc(C(=O)NOCc3ocnc3C)n2)cn1 [Compound 65, 6-(6-ethoxypyridine-3-yl)-N-((4-methyloxazole-5-yl)methoxy)pyrazine-2-carboxamide] | > 1000 nM | > 1000 nM |
| CCOc1ccc(-c2cncc(C(=O)NOCc3[nH]ccc3C)n2)cn1 [Compound 67, 6-(6-ethoxypyridine-3-yl)-N-((3-methyl-1H-pyrrole-2-yl)methoxy)pyrazine-2-carboxamide] | < 500 nM | > 1000 nM |
| [2H]C([2H])([2H])C([2H])([2H])Oc1ccc(-c2cncc(C(=O)NOCc3cc(OC)ccc3F)n2)cn1 [Compound 48, 6-(6-(ethoxy-d5)pyridine-3-yl)-N-((2-fluoro-5-methoxybenzyl)oxy)pyrazine-2-carboxamide] | > 1000 nM | > 1000 nM |
| O=C(NOCc1ccncc1)c1cncc(-c2ccc(OC(F)(F)F)nc2)n1 [Compound 75] | < 500 nM | < 500 nM |
| CCOc1ccc(-c2cncc(C(=O)NOCc3cccc(OC)c3)n2)cc1 [Compound 5, 6-(4-ethoxyphenyl)-N-((3-methoxybenzyl)oxy)pyrazine-2-carboxamide] | < 500 nM | > 1000 nM |
| COc1ccc(F)c(CONC(=O)c2cncc(-c3ccc([S+](C)[O-])nc3)n2)c1 (centres unmarked) [Compound 84] | < 500 nM | > 1000 nM |
| CCOc1ccc(-c2cncc(C(=O)NOCc3ccccc3F)n2)cc1 [Compound 4, 6-(4-ethoxyphenyl)-N-((2-fluorobenzyl)oxy)pyrazine-2-carboxamide] | < 500 nM | 500 to 1000 nM |
| CCOc1ccc(-c2nc(O)cc(C(=O)NOCc3cc(OC)ccc3F)n2)cc1 [Compound 112] | < 500 nM | > 1000 nM |
| COc1ccc(F)c(CONC(=O)c2cncc(-c3ccc(OC(F)F)nc3)c2)c1 [Compound 116] | < 500 nM | > 1000 nM |
| CCOc1ccc(-c2cncc(C(=O)NOCc3occc3OC)n2)cn1 [Compound 66, 6-(6-ethoxypyridine-3-yl)-N-((3-methoxyfuran-2-yl)methoxy)pyrazine-2-carboxamide] | > 1000 nM | > 1000 nM |

Next, values leading:

| IC50 [1] | IC50 [2] | SMILES |
| --- | --- | --- |
| < 500 nM | 500 to 1000 nM | CCOc1ccc(-c2cncc(C(=O)NOCc3cc(OC)cnc3C)n2)cc1 [Compound 18, 6-(4-ethoxyphenyl)-N-((5-methoxy-2-methylpyridine-3-yl)methoxy)pyrazine-2-carboxamide] |
| > 1000 nM | > 1000 nM | CCOc1ccc(-c2cncc(C(=O)NOCc3cc(O)ccc3F)n2)cn1 [Compound 43, 6-(6-ethoxypyridine-3-yl)-N-((2-fluoro-5-hydroxybenzyl)oxy)pyrazine-2-carboxamide] |
| > 1000 nM | > 1000 nM | [2H]C([2H])([2H])Oc1ccc(F)c(CONC(=O)c2cncc(-c3ccc(OC([2H])([2H])C([2H])([2H])[2H])nc3)n2)c1 [Compound 53, 6-(6-(ethoxy-d5)pyridine-3-yl)-N-((2-fluoro-5-(methoxy-d3)benzyl)oxy)pyrazine-2-carboxamide] |
| 500 to 1000 nM | > 1000 nM | COc1ccc(F)c(CONC(=O)c2cncc(-c3ccc(OC(C)C)nc3)n2)c1 [Compound 31, N-((2-fluoro-5-methoxybenzyl)oxy)-6-(6-isopropoxypyridine-3-yl)pyrazine-2-carboxamide] |
| < 500 nM | 500 to 1000 nM | CCOc1ccc(-c2cncc(C(=O)NOCc3cc(OC)ccc3Cl)n2)cc1 [Compound 11, N-((2-chloro-5-methoxybenzyl)oxy)-6-(4-ethoxyphenyl)pyrazine-2-carboxamide] |
| 500 to 1000 nM | > 1000 nM | CCOc1ccc(-c2cncc(C(=O)NOCc3ccccc3F)n2)cn1 [Compound 32, 6-(6-ethoxypyridine-3-yl)-N-((2-fluorobenzyl)oxy)pyrazine-2-carboxamide] |
| > 1000 nM | > 1000 nM | [2H]C([2H])([2H])Oc1ccc(F)c(C([2H])([2H])ONC(=O)c2cncc(-c3ccc(OC([2H])([2H])C([2H])([2H])[2H])nc3)n2)c1 [Compound 54, 6-(6-(ethoxy-d5)pyridine-3-yl)-N-((2-fluoro-5-(methoxy-d3)phenyl)methoxy-d2)pyrazine-2-carboxamide] |
| < 500 nM | > 1000 nM | CCOc1ccc(-c2cncc(C(=O)NOCc3cc(O)ccc3F)n2)cc1 [Compound 14, 6-(4-ethoxyphenyl)-N-((2-fluoro-5-hydroxybenzyl)oxy)pyrazine-2-carboxamide] |
| > 1000 nM | > 1000 nM | COc1ccc(F)c(CONC(=O)c2cncc(-c3ccc([S+](C)[O-])cc3)n2)c1 (centres unmarked) [Compound 29, N-((2-fluoro-5-methoxybenzyl)oxy)-6-(4-(methylsulfinyl)phenyl)pyrazine-2-carboxamide] |
| > 1000 nM | > 1000 nM | CCOc1ccc(-c2cncc(C(=O)NOCc3cc(OC)ccc3C)n2)cn1 [Compound 47, 6-(6-ethoxypyridine-3-yl)-N-((5-methoxy-2-methylbenzyl)oxy)pyrazine-2-carboxamide] |
| > 1000 nM | > 1000 nM | CCOc1ccc(-c2cncc(C(=O)NOCc3cc(OC)ccc3C)n2)cc1 [Compound 19, 6-(4-ethoxyphenyl)-N-((5-methoxy-2-methylbenzyl)oxy)pyrazine-2-carboxamide] |
| > 1000 nM | > 1000 nM | CCOc1ccc(-c2cncc(C(=O)NOCc3cc(C(C)N)ccc3F)n2)cn1 (centres unmarked) [Compound 45, N-((5-(1-aminoethyl)-2-fluorobenzyl)oxy)-6-(6-ethoxypyridine-3-yl)pyrazine-2-carboxamide] |
